Experiment [1] can be described thus: Wet adhesion of the coating formulation, DIN 53 151 crosshatch cut and tape tearoff test, after the humidity test. Conditions: after humidity test 330 hours, scale Gt 0 (completely intact adhesion) to Gt 5 (inadequate adhesion). As for the experimental part: (§1) The coating formulations are applied to steel panels (19×10.5 cm) of the Bonder type (cold-rolled degreased steel; manufactured by Chemetall, Frankfurt am Main/Germany) in a coat thickness which after drying amounts to 50-55 μm. Drying conditions: 10 days at room temperature.
(§2) As additional assessment criteria, the “subfilm migration in the wet state” (cathodic delamination) along the artificial damage side is determined, after the end of the salt spray test, in accordance with DIN 53 167. […] After the end of the humidity test, the wet adhesion of the coating formulation is determined in accordance with DIN 53 151 by making a crosshatch cut followed by the tape tearoff test. According to DIN 53 151 (scale from Gt 0 to Gt 5) a crosshatch value of Gt 0 corresponds to completely intact adhesion of the coating film, whereas Gt 5 corresponds to inadequate adhesion.

Experiment [2] is described as follows: Humidity test ASTM D 4585-87, 330 hours, of acrylic dispersion coating (Maincote HG-54) with corrosion inhibitor; corrosion protection factor CPF. Conditions: humidity test 330 hours, coat thickness 45 to 50 μm; for CPF film / CPF metal: maximum 6 points, greater = better; for CPF: sum of film and metal, maximum 12 points. As for the experimental part:
(§3) In order to prepare the coating formulation (acrylic dispersion based on Maincote HG-54), components 1 to 8 (formulation without amine salt) and components 1 to 9 (formulation comprising an amine salt) are employed in the sequence stated (see Table 1).
(§4) Components 1 to 8 or 1 to 9 are dispersed using a high-speed stirrer at 3000 revolutions/minute to a degree of ground fineness or ground particulate nature of <15 μm. The outcome of dispersing the pigment paste thus obtained is assessed by determining the grindometer value (ISO 1524).The amount of the novel salts employed is based on the overall solids content of the formulation without salt (overall solids content 47%). Accordingly, an addition of, say, 1.0% of amine salt to 100 g of dispersion denotes, for example, an amount of 0.47 g. To complete the coating formulation, components 10 to 16 of Table 1 are added at a reduced stirring speed (1000 revolutions/minute) in the stated sequence. Subsequently, the pH of the formulation is checked and, if appropriate, is adjusted prior to application to a value of from 8 to 8.5 using ammonia solution (25% strength).
[…] Drying conditions: 10 days at room temperature.
(§5) Prior to the beginning of weathering, the “coating films” undergo defined damage in the form of a parallel cut (i.e. parallel to the longest panel edge) using a Bonder cross-cut instrument (Mod. 205; manufactured and sold by Lau, 5870 Hemer/Germany). The panel edges are protected by applying an edge protector (Icosit® 255; manufactured by Inertol AG, Winterthur/Switzerland).
(§6) The samples are subsequently subjected to accelerated weathering in a salt spray test in accordance with DIN 50 021 SS for 168 hours (Table 2) or to a humidity test in accordance with ASTM D 4585-87 for 330 hours (Table 3). The assessment of the results is based on the relevant DIN standards in accordance with an evaluation key, by the indication of a corrosion protection value CPF (Corrosion Protection Factor). The CPF is an additive term composed of an assessment of the coating (film) and an assessment of visible underfilm corrosion and appearance of the metal surface, and has a maximum of 12 points. The individual maximum values are 6 points each. The greater the CPF, the better the protection against corrosion.

The nature of experiment [3]: Salt spray test DIN 50 021 SS, 168 hours, of acrylic dispersion coating (Maincote HG-54) with corrosion inhibitor; corrosion protection factor CPF. The conditions noted are these: salt spray 168 hours, coat thickness 50 to 55 μm; for CPF film / CPF metal: maximum 6 points, greater = better; for CPF: sum of film and metal, maximum 12 points. As for the experimental part:
as §3, §4, §1, §5, §6

Experiment [4] is described as follows: Subfilm migration in the wet state (cathodic delamination) along the artificial damage, DIN 53 167, after the salt spray test. Conditions: after salt spray 168 hours, coat thickness 50 to 55 μm, lesser = more effective.
Excerpt: as §1, §5, §2

Where [5] appears, read: 1% inhibitor on overall solids content.
[6] abbreviates: 2% inhibitor on overall solids content.

The structures appear in SMILES notation.

For `CCCCCCCCCCCCCCCCCCN(CP(=O)(O)O)CP(=O)(O)O.CCN1CCOCC1.CCN1CCOCC1` [Example 1, n-Octadecylaminobismethylenephosphonic Acid, Salt with Two Equivalents of N-ethylmorpholine], the “Wet adhesion (Gt value)” value in experiment [1] (1% inhibitor) and in experiment [1] (2% inhibitor) was 0 Gt each time. Moreover, the CPF film in experiment [2] (setting [5]) was 4.0; in experiment [2] (setting [6]), 5.0; in experiment [3] (setting [5]), 6.0; in experiment [3] (setting [6]) it was 6.0. In addition, the CPF metal was 4.0 in experiment [2] (setting [5]), 4.0 in experiment [2] (setting [6]), 5.0 in experiment [3] (setting [5]) and 5.2 in experiment [3] (setting [6]). Besides, the CPF is recorded as 8.0 in experiment [2] (1% inhibitor), 9.0 in experiment [2] (2% inhibitor), 11.0 in experiment [3] (1% inhibitor) and 11.2 in experiment [3] (2% inhibitor). In addition, the “Cathodic delamination (mm total)” value was 28 mm in experiment [4] (1% inhibitor) and 30 mm in experiment [4] (2% inhibitor).
For `CCCCCCN(CCCCCC)CP(=O)(O)O.CCN1CCOCC1.CCN1CCOCC1` [Example 2, Dihexylaminomethylenephosphonic Acid, Salt with Two Equivalents of N-ethylmorpholine], in experiment [1] (1% inhibitor), the “Wet adhesion (Gt value)” value came out at 0 Gt. Also, the CPF film in experiment [2] (setting [5]) is 4.0; in experiment [3] (setting [5]) it was 4.2. Also, the CPF metal in experiment [2] (setting [5]) was 4.0; in experiment [3] (setting [5]), 5.2. Moreover, the CPF amounted to 8.0 in experiment [2] (1% inhibitor) and 9.4 in experiment [3] (1% inhibitor). For the same compound, in experiment [4] (1% inhibitor), the “Cathodic delamination (mm total)” value was found to be 14 mm.
With `CCCCCCCCN(CCCCCCCC)CP(=O)(O)O.CCN1CCOCC1.CCN1CCOCC1` [Example 3, Dioctylaminomethylenephosphonic Acid, Salt with Two Equivalents of N-ethylmorpholine], in experiment [3] (setting [5]), the CPF film was determined as 4.0 and the CPF metal came out at 4.0. For the same compound, the CPF in experiment [3] (1% inhibitor) came out at 8.0. Further, the “Cathodic delamination (mm total)” value in experiment [4] (1% inhibitor) stood at 16 mm.
Consider `CCCCC(CC)CN(CP(=O)(O)O)CP(=O)(O)O.CCN1CCOCC1.CCN1CCOCC1` (stereo not shown) [Example 4, 2-Ethylhexylaminobismethylenephosphonic Acid, Salt with Two Equivalents N-ethylmorpholine], for which the “Wet adhesion (Gt value)” value in experiment [1] (1% inhibitor) and in experiment [1] (2% inhibitor) was 0 Gt throughout. Further, the CPF film in experiment [2] (setting [5]) is on record as 4.0; in experiment [2] (setting [6]), 5.0; in experiment [3] (setting [5]), 5.0. For the same compound, the CPF metal in experiment [2] (setting [5]) came out at 2.6; in experiment [2] (setting [6]), 4.8; in experiment [3] (setting [5]), 5.0. Also, the CPF in experiment [2] (1% inhibitor) was found to be 6.6; in experiment [2] (2% inhibitor) it was 9.8; in experiment [3] (1% inhibitor), 10.0. The “Cathodic delamination (mm total)” value in experiment [4] (1% inhibitor) was determined as 22 mm.
In the case of `CCCCCCCCCCCCCCCCN(CP(=O)(O)O)CP(=O)(O)O.CCN1CCOCC1.CCN1CCOCC1` [Example 5, n-Hexadecylaminobismethylenephosphonic Acid, Salt with Two Equivalents of N-ethylmorpholine], in experiment [1] (1% inhibitor), the “Wet adhesion (Gt value)” value turned out to be 0 Gt. In addition, the CPF film was determined as 4.2 in experiment [2] (setting [5]) and 5.2 in experiment [3] (setting [5]). Further, the CPF metal in experiment [2] (setting [5]) and in experiment [3] (setting [5]) was 5.0 in each case. The CPF in experiment [2] (1% inhibitor) was found to be 9.2; in experiment [3] (1% inhibitor), 10.2. Moreover, the “Cathodic delamination (mm total)” value in experiment [4] (1% inhibitor) worked out at 26 mm.
Take `CCCCCCCCCCCCCCN(CP(=O)(O)O)CP(=O)(O)O.CCN1CCOCC1.CCN1CCOCC1` [Example 6, n-Tetradecylaminobismethylenephosphonic Acid, Salt with Two Equivalents of N-ethylmorpholine]: the “Wet adhesion (Gt value)” value in experiment [1] (1% inhibitor) and in experiment [1] (2% inhibitor) was 0 Gt each time. For the same compound, the CPF film in experiment [2] (setting [5]) worked out at 4.6; in experiment [2] (setting [6]) it was 5.2; in experiment [3] (setting [5]), 5.4. In addition, the CPF metal in experiment [2] (setting [5]) was 5.0; in experiment [2] (setting [6]), 4.5; in experiment [3] (setting [5]) it was 5.0. Also, the CPF in experiment [2] (1% inhibitor) was 9.6; in experiment [2] (2% inhibitor), 9.7; in experiment [3] (1% inhibitor), 10.2. Also, the “Cathodic delamination (mm total)” value in experiment [4] (1% inhibitor) turned out to be 18 mm.
As for `CCCCCCCCCCCCN(CP(=O)(O)O)CP(=O)(O)O.CCN1CCOCC1.CCN1CCOCC1` [Example 7, n-Dodecylaminobismethylenephosphonic Acid, Salt with Two Equivalents of N-ethylmorpholine], the “Wet adhesion (Gt value)” value in experiment [1] (1% inhibitor) and in experiment [1] (2% inhibitor) was 0 Gt each time. Moreover, the CPF film in experiment [2] (setting [5]) is on record as 5.2; in experiment [2] (setting [6]), 6.0; in experiment [3] (setting [5]) it was 5.4. The CPF metal in experiment [2] (setting [5]) was found to be 3.0; in experiment [2] (setting [6]), 4.5; in experiment [3] (setting [5]), 5.6. The CPF was found to be 8.2 in experiment [2] (1% inhibitor), 10.5 in experiment [2] (2% inhibitor) and 11.0 in experiment [3] (1% inhibitor). In addition, the “Cathodic delamination (mm total)” value in experiment [4] (1% inhibitor) is listed as 16 mm.
Consider `CCCCCCCCCCN(CP(=O)(O)O)CP(=O)(O)O.CCN1CCOCC1.CCN1CCOCC1` [Example 8, n-Decylaminobismethylenephosphonic Acid, Salt with Two Equivalents of N-ethylmorpholine], for which, in experiment [1] (1% inhibitor), the “Wet adhesion (Gt value)” value is 0-1 Gt. Further, the CPF film in experiment [2] (setting [5]), in experiment [3] (setting [5]) and in experiment [3] (setting [6]) was 5.2 each time. Moreover, the values for the CPF metal in experiment [2] (setting [5]), in experiment [3] (setting [5]) and in experiment [3] (setting [6]) were 4.7, 5.4 and 5.2, respectively. The CPF in experiment [2] (1% inhibitor) was found to be 9.9; in experiment [3] (1% inhibitor) it was 10.6; in experiment [3] (2% inhibitor), 10.4. Besides, the “Cathodic delamination (mm total)” value in experiment [4] (1% inhibitor) is 12 mm; in experiment [4] (2% inhibitor), 10 mm.
For the compound `CCCCCCCCN(CP(=O)(O)O)CP(=O)(O)O.CCN1CCOCC1.CCN1CCOCC1` [Example 9, n-Octylaminobismethylenephosphonic Acid, Salt with Two Equivalents of N-ethylmorpholine], the “Wet adhesion (Gt value)” value in experiment [1] (1% inhibitor) and in experiment [1] (2% inhibitor) was 0 Gt each time. In addition, the figures for the CPF film in experiment [2] (setting [5]), in experiment [2] (setting [6]) and in experiment [3] (setting [5]) were 4.4, 4.8 and 5.6, respectively. The CPF metal turned out to be 4.0 in experiment [2] (setting [5]), 5.4 in experiment [2] (setting [6]) and 5.4 in experiment [3] (setting [5]). Besides, the CPF in experiment [2] (1% inhibitor) turned out to be 8.4; in experiment [2] (2% inhibitor), 10.2; in experiment [3] (1% inhibitor), 11.0. In addition, the “Cathodic delamination (mm total)” value in experiment [4] (1% inhibitor) amounted to 12 mm.
In the case of `CCCCCCCCCCN(CP(=O)(O)O)CP(=O)(O)O.OCCN(CCO)CCO.OCCN(CCO)CCO` [Example 17, n-Decylaminobismethylenephosphonic Acid, Salt with Two Equivalents of Triethanolamine], in experiment [3] (setting [5]), the CPF film is 5.4 and the CPF metal amounted to 5.5. In experiment [3] (1% inhibitor), the CPF is 10.9. In experiment [4] (1% inhibitor), the “Cathodic delamination (mm total)” value was determined as 16 mm.

Values taken from patent publication US6403826B1, “Corrosion-inhibiting coating composition for metals” (Ciba Specialty Chemicals Corporation, priority 1996, dated 2002).
